# From ChEMBL document CHEMBL4371042, “Molecular Mechanism of Inhibition of Acid Ceramidase by Carmofur” (J Med Chem, 2019)
# Target: T1, Acid ceramidase (Homo sapiens, UniProt Q13510)
# T1 sequence (Q13510 whole entry): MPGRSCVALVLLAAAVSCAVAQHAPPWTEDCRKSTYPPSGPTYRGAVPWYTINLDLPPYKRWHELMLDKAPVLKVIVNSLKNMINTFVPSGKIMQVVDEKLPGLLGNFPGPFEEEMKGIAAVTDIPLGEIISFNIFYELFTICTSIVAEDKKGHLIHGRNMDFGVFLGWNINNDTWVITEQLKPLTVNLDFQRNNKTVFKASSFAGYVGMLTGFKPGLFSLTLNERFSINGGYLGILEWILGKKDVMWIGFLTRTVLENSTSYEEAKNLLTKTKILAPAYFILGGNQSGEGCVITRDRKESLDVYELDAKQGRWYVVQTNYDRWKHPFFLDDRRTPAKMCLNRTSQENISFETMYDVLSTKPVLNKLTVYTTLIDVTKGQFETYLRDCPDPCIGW
# Experiment: Non-competitive inhibition of human acid ceramidase
smiles,measurement,value
O=C(NCCCCc1ccccc1)n1c(=O)oc2ccccc21,Ki,64 nM
